Experimental data taken from publication PMC12606464, “Investigating NFE2L1 activators for targeted protein aggregate clearance: a follow-up study” (RSC Medicinal Chemistry, 2025).
Where two headings read alike, the source gives them in different places.

Test system: NFE2L1 pathway
Experiment: 3×PSMA4-ARE-LUC dual luciferase reporter assay in HEK293 cells
Type: cell-based, human
Conditions: for EC50 / fold induction at 5 µM: Homo sapiens; for EC50: HEK293; for fold induction at 5 µM: 16 h, HEK293, luminescence relative to DMSO-treated cells, read-out: NFE2L1 activation [5 μM]
In short: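 HEK293 cells carrying the 3×PSMA4-ARE luciferase reporter (with pRL-TK) were treated with compounds for 16 h, then luciferase activity was measured. Values are fold change in luminescence over DMSO-treated cells; EC50 from four-parameter logistic or bell-shaped fits with 1/Y^2 weighting.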

[1] = Bell-shaped fit, X is concentration, weighting 1/Y^2, Fig. S1
[2] = Bell-shaped fit, X is concentration, weighting 1/Y^2, Fig. S1, read-out: EC50_1 (best-fit)
[3] = PSMA4-ARE-luc2P reporter, four-parameter logistic or bell-shaped model, order of models not stated, read-out: EC50
[4] = PSMA4-ARE-luc2P reporter, four-parameter logistic or bell-shaped model, order of models not stated, read-out: EC50 (first value)
[5] = [Agonist] vs. Response, variable slope (four parameters), weighting 1/Y^2, Fig. S1

| EC50 [4] | EC50 ([Agonist] vs. Response, variable slope (four parameters), weighting 1/Y^2, Fig. S1, read-out: EC50 (best-fit)) | Structure (SMILES) | Dip (best-fit) [1] | Plateau1 (best-fit) [1] | Plateau2 (best-fit) [1] | nH1 (best-fit) [1] | nH2 (best-fit) [1] | EC50 [2] | EC50 [3] | fold induction at 5 µM | Bottom (best-fit) [5] | Hillslope (best-fit) [5] | Span (best-fit) [5] | Top (best-fit) [5] | logEC50 (best-fit) [5] |
| --- | --- | --- | --- | --- | --- | --- | --- | --- | --- | --- | --- | --- | --- | --- | --- |
| 10.4 µM |  | COc1ccc(/C=C2\CC(N)C/C(=C\c3ccc(OC)c(OC)c3)C2=O)cc1OC (stereo not drawn) [RUN-81] |  |  |  |  |  |  |  | 2.1 | 0.95 | 2.70 | 18.71 | 19.66 | 1.02 |
| 3.8 µM | 3.79 µM | COc1ccc(/C=C2\CC(NC(=O)c3ccccn3)C/C(=C\c3ccc(OC)c(OC)c3)C2=O)cc1OC (stereo not drawn) [RUN-94] | 8.602 | -2.174 | 11.95 | Unstable | 18.05 | 3.8 µM | 3.8 µM | 19.4 | 1.13 | 55.77 | 9.24 | 10.37 | 0.58 |

| Structure (SMILES) | EC50 [4] | EC50 ([Agonist] vs. Response, variable slope (four parameters), weighting 1/Y^2, Fig. S1, read-out: EC50 (best-fit)) | Dip (best-fit) [1] | Plateau1 (best-fit) [1] | Plateau2 (best-fit) [1] | nH1 (best-fit) [1] | nH2 (best-fit) [1] | EC50 [2] | EC50 [3] | fold induction at 5 µM | Bottom (best-fit) [5] | Hillslope (best-fit) [5] | Span (best-fit) [5] | Top (best-fit) [5] | logEC50 (best-fit) [5] |
| --- | --- | --- | --- | --- | --- | --- | --- | --- | --- | --- | --- | --- | --- | --- | --- |
| COc1ccc(/C=C2\CC(NC(=O)C3CCCC3)C/C(=C\c3ccc(OC)c(OC)c3)C2=O)cc1OC (stereo not drawn) [RUN-89] | 3.1 µM |  | 19.12 | 1.124 | 5.392 | -4.123 | -7.321 | 4.89 µM | 4.9 µM | 11.7 | 1.08 | 7.14 | 6.12 | 7.20 | 0.49 |
